Measured values reported in patent US5681821A, “Fluorescent 1-peptidylaminoalkanephosphonate derivatives” (Georgia Tech Research Corp., priority 1994, dated 1997).
Each block holds one molecule with its values, some of them ahead of it.

What was measured:
chymotrypsin = chymotrypsin (Bos taurus, UniProt P00766); assay: Inactivation of chymotrypsin, incubation method; format: biochemical, bovine; conditions: for kobsd /(I) Chymotrypsin: 0.1 M Hepes, 0.5 M NaCl, pH 7.5, 5-10% Me2SO, 25° C., NI = no inhibition after 40 min of incubation
Experimental: (§1) Inactivation rates of serine proteases by fluorescent peptidylphosphonates were measured by the incubation method. In each case the inactivation experiment was preceded by an enzyme assay in which the hydrolysis of peptide p-nitroanilide substrates, catalyzed by chymotrypsin, PPE, HLE, and trypsin was measured in 0.1M Hepes and 0.5M NaCl (0.01M CaCl2 for trypsin), pH 7.5 buffer containing 5-10% Me2 SO at 25° C. Stock solutions of substrates were prepared in Me2 SO (20 mM) and stored at -20° C. Final substrate concentrations were 0.24 mM. Chymotrypsin activity was assayed with Suc-Val-Pro-Phe-NA. PPE was assayed with Suc-Ala-Ala-Ala-NA. HLE was assayed with MeO-Suc-Ala-Ala-Pro-Val-NA and trypsin was assayed with Z-Arg-NA. The initial rates of hydrolysis were measured at 410 nm (ε410 =8800 M^-1 cm^-1) on a Beckman 35 spectrophotometer after 25-50 μL of an enzyme stock solution was added to a cuvette containing 2.0 mL of buffer and 25 μL of substrate.
(§2) Each inhibition reaction was initiated by adding a 50 μL aliquot of inhibitor (100-5000 μM in Me2 SO) to 0.5 mL of a 0.1M Hepes, 0.5M NaCl (0.01M CaCl2 for trypsin), pH 7.5 buffer containing 50 μL of a stock enzyme solution at 25° C. The enzyme stock solutions were 20 μM chymotrypsin, trypsin, and PPE in 1 mM HCl (pH 3), and 0.4-4 μM HLE in 0.25M NaAc and 1M NaCl at pH 5.5. All the enzyme stock solutions were stored at -20° C. prior to use. Aliquots (25 μL) were withdrawn at various intervals and the residual enzymatic activity was measured spectrophotometrically as described above. Pseudo first-order inactivation rate constants (kobsd) were obtained from plots of ln vt /vo vs time and had correlation coefficients greater than 0.98. Each kobsd was calculated from 5-10 activity determinations which extended to 2-3 half lives. Control experiments were carried out in the same way as described above except Me2 SO was added in place of the inhibitor solution in Me2 SO. […] These initial rates were used as vo in the calculation of the inhibition rate constants.

Asp-ase granule protease = molecular target: T1, Asp-ase granule protease (Rattus norvegicus, UniProt P18291); assay: Inactivation of RNK-16 granule Asp-ase activity; format: biochemical; conditions: RNK-16 granule protease activity
T1 construct: endogenous in cells; host or cells: RNK-16
T1 sequence (P18291 21-248): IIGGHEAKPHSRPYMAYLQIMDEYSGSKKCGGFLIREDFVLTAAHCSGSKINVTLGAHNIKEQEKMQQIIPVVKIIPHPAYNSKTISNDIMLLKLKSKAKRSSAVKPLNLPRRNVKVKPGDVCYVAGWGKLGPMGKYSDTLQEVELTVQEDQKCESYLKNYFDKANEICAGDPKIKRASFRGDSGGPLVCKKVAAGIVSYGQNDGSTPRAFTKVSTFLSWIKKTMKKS

[1] = molecular target: T2, human leukocyte elastase (HLE) (Homo sapiens, UniProt P08246); assay: Inactivation of HLE, incubation method; format: biochemical; conditions: 0.1 M Hepes, 0.5 M NaCl, pH 7.5, 5-10% Me2SO, 25° C.; NI = no inhibition after 40 min of incubation
T2 construct: purchased Athens Research and Technology, Inc., Athens, Ga
T2 sequence (P08246 30-267): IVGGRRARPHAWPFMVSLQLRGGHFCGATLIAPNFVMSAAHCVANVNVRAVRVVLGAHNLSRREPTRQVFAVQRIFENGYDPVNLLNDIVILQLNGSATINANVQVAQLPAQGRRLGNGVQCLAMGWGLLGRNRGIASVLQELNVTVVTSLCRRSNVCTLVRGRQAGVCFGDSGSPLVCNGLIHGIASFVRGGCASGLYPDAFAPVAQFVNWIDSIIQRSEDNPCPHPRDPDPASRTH
Experimental: as §1, §2

[2] = molecular target: T3, porcine pancreatic elastase (PPE) (Sus scrofa, UniProt P00772); assay: Inactivation of PPE, incubation method; format: biochemical; conditions: 0.1 M Hepes, 0.5 M NaCl, pH 7.5, 5-10% Me2SO, 25° C.; NI = no inhibition after 40 min of incubation
T3 construct: purchased United States Biochemical Corp., Cleveland, Ohio
Experimental: as §1, §2

RNK-16 cells = assay: Cell labeling and confocal imaging of NK line RNK-16; format: cell-based; conditions: live RNK-16 cells, 0.1 mM inhibitor, 30 minutes, 37° C., confocal microscopy
Experimental: Cell Labeling and Imaging. Cells of the NK line RNK-16 were labeled as live cells, washed, treated with methanol as a fixative and permeabilizing agent, and then examined by confocal microscopy. The cells were treated at 1×10^7 cells/mL in RPMI 1640 culture media (Sigma Chemical Co., St. Louis, Mo.) containing 10 mM Hepes with 0.1 mM FTC-Aca-Ala-Ala-Met^P (OPh)2 for 30 minutes at 37° C. Control cells were treated with the same volume of DMSO required to deliver the inhibitor (typically 1% final concentration). Cells were then washed several times with phosphate buffered saline (PBS) to remove excess inhibitor. They were suspended overnight in cold 80% methanol to permeabilize the membrane. The cells were washed free of MeOH into PBS and fixed onto poly-L-lysine (Sigma) coated microscope slides using 3% paraformaldehyde. Fixed slides were washed in PBS, coated with Vectashield (Vector Laboratories, Inc., Burlingame, Ca.) to prevent fluorescence fading and topped with a coverslip. Fluorescent laser scanning confocal microscopy was done with a Bio-Rad MRC 600 confocal system utilizing a Zeiss Axiophot microscope and equipped with a mixed-gas argon/krypton ion laser using 488 nm excitation for fluorescein.

RNK-16 chymase [3] = assay: Inactivation of RNK-16 granule chymase activity; format: biochemical; conditions: granule protease activity
[4] = system: tryptase granule protease; assay: Inactivation of RNK-16 granule tryptase activity; format: biochemical; conditions: RNK-16 granule protease activity
RNK-16 chymase [5] = conditions: previous approach, comparison; cited from earlier work
[6] = system: tryptase granule protease; conditions: previous approach, comparison; cited from earlier work

T3 sequence (P00772 27-266): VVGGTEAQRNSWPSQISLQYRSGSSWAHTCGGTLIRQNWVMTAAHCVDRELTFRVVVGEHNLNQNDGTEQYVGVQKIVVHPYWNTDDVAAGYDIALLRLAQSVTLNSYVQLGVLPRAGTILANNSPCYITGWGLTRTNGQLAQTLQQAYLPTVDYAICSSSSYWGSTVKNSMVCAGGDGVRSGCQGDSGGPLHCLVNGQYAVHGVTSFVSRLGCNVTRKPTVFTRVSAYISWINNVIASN

kobsd /(I) Chymotrypsin (chymotrypsin): 190 M⁻¹ s⁻¹
inactivation of Asp-ase granule protease activity (Asp-ase granule protease): little
kobsd /(I) HLE [1]: 22 M⁻¹ s⁻¹
kobsd /(I) PPE [2]: 13 M⁻¹ s⁻¹
inactivation of RNK-16 chymase (RNK-16 chymase [3]): inactivated
inactivation of tryptase granule protease activity [4]: little
Molecule: CSCCC(NC(=O)[C@H](C)NC(=O)[C@H](C)NC(=O)CCCCCNC(=S)Nc1ccc2c(c1)C(=O)OC21c2ccc(O)cc2Oc2cc(O)ccc21)P(=O)(Oc1ccccc1)Oc1ccccc1 (stereo partly drawn) [Compound 1, Diphenyl 1-(6-(5-Fluoresceinylthiocarbamoylamino)caproylalanylalanylamino)-3-(methylthio)propanephosphonate]
fluorescent labeling of cells (RNK-16 cells): reacted with distinct, granule-like regions

kobsd /(I) PPE [2]: 22 M⁻¹ s⁻¹
Molecule: CC(NC(=O)[C@H](C)NC(=O)[C@H](C)NC(=O)CCCCCNC(=S)Nc1ccc2c(c1)C(=O)OC21c2ccc(O)cc2Oc2cc(O)ccc21)P(=O)(Oc1ccccc1)Oc1ccccc1 (stereo partly drawn) [Compound 2, Diphenyl 1-(6-(5-Fluoresceinylthiocarbamoylamino)caproylalanylalanylamino) ethanephosphonate]

times faster inhibition of chymotrypsin than of HLE (chymotrypsin; ratio of kobsd/(I) chymotrypsin to HLE): 600
kobsd /(I) PPE [2]: 16 M⁻¹ s⁻¹
Molecule: CC(C)C[C@H](NC(=O)[C@H](Cc1ccccc1)NC(=O)CCCCCNC(=S)Nc1ccc2c(c1)C(=O)OC21c2ccc(O)cc2Oc2cc(O)ccc21)C(=O)NC(Cc1ccccc1)P(=O)(Oc1ccccc1)Oc1ccccc1 (stereo partly drawn) [Compound 3, Diphenyl 1-(6-(5-Fluoresceinylthiocarbamoylamino)caproylphenylalanylleucylamino)-2-phenylethanephosphonate]

kobsd /(I) Chymotrypsin (chymotrypsin): 15 M⁻¹ s⁻¹
kobsd /(I) HLE [1]: 96 M⁻¹ s⁻¹
kobsd /(I) PPE [2]: 11 M⁻¹ s⁻¹
Molecule: Diphenyl 1-(6-(4(or 2)(9-(2,3,6,7,12,13,16,17-octahydro-1H,5H,11H,15H-xantheno(2,3,4-ij:5,6,7- i'j')diquinolizinyl-18-ium))3(or 5)sulfo-1-phenylsulfonamido)caproylphenylalanylleucylamino)-2-phenylethanephosphonate, Hydroxide, Inner Salt [Compound 4]

kobsd /(I) PPE [2]: 30 M⁻¹ s⁻¹
Molecule: CC(NC(=O)[C@H](C)NC(=O)[C@H](C)NC(=O)OCc1ccccc1)P(=O)(Oc1ccccc1)Oc1ccccc1 (stereo partly drawn) [Compound 6, Z-Ala-Ala-Ala^P (OPh)2, reference compound]

kobsd /(I) Chymotrypsin (chymotrypsin): 3 M⁻¹ s⁻¹
kobsd /(I) HLE [1]: 2 M⁻¹ s⁻¹
kobsd /(I) PPE [2]: 3 M⁻¹ s⁻¹
Molecule: CSCCC(NC(=O)[C@H](C)NC(=O)[C@H](C)NC(=O)OC(C)(C)C)P(=O)(Oc1ccccc1)Oc1ccccc1 (stereo partly drawn) [Compound 5, Boc-Ala-Ala-Met^P (OPh)2, reference compound]

kobsd /(I) Chymotrypsin (chymotrypsin): 110 M⁻¹ s⁻¹
kobsd /(I) HLE [1]: 27 M⁻¹ s⁻¹
Molecule: CC(C)C[C@H](NC(=O)[C@H](Cc1ccccc1)NC(=O)OCc1ccccc1)C(=O)NC(Cc1ccccc1)P(=O)(Oc1ccccc1)Oc1ccccc1 (stereo partly drawn) [Compound 7, Z-Phe-Leu-Phe^P (OPh)2, reference compound]

B1: soybean trypsin inhibitor: reversible serine protease inhibitor, macromolecular inhibitor (protein, UniProt P01070 25-205, looked up)
Trypsin inhibitor A: DFVLDNEGNPLENGGTYYILSDITAFGGIRAAPTGNERCPLTVVQSRNELDKGIGTIISSPYRIRFIAEGHPLSLKFDSFAVIMLCVGIPTEWSVVEDLPEGPAVKIGENKDAMDGWFRLERVSDDEFNNYKLVFCPQQAEDDKCGDIGISIDHDDGTRRLVVSKNKPLVVQFQKLDKESL
inactivation of chymases of cytotoxic lymphocytes (RNK-16 chymase [5]): inactivated
inactivation of tryptases of cytotoxic lymphocytes [6]: inactivated
